Reference: patent US20250025500A1, “PHOSPHATASE INHIBITORS AS NK CELLS MODULATORS FOR THE TREATMENT OF CANCER” (Kanyr Pharma Inc., priority 2021, published 2025)

Assays:
[1] = system: cord blood isolated NK cells; assay: Surface receptor expression on cord blood NK cells (flow cytometry); format: cell-based, Human; details: 30 μM, with or without K-562 stimulation E:T 1:1, three hours
Source text: Human cord blood derived NK cells (CB-NK) were kindly provided by Dr. Linda Peltier's Cellular Therapy Laboratory at McGill University Health Center (Montreal, Canada) in frozen format and were stored in liquid nitrogen tank until usage. Briefly, 1×10^7 cells were resuspended in frozen medium consisting of ImmunoCult T Cell Medium supplemented with 10% DMSO final concentration. Frozen CB-NK cells were thawed, and ex vivo expanded at Goodman Cancer Research Center (GCRC) for five days in xeno-free ImmunoCult T cell expansion media supplemented with 10% PlasmaLyte A and freshly with a cytokine cocktail of IL-2 (5 ng/mL), IL-7 (5 ng/mL), IL-15 (5 ng/mL), SCF (15 ng/mL) and FLT3/L (10 ng/mL) every two days. […] On day three, inhibitor L598 and fresh cytokine cocktails were supplemented to the cell media. NK cell population purity and immunophenotype profiling of major activating and inhibitory receptors were assessed upon receiving shipments, after ex vivo expansion for five days and after anti-tumor cytolytic assay.

[2] = system: SMAD2, SOCS1, SOCS3 in NK-92 cells; assay: Western blot of phospho-SMAD2, SOCS1 and SOCS3 in NK-92; format: cell-based, Human; details: with inhibitor treatment
Method: (§1) Total cell lysate was prepared with modified RIPA buffer (1M Tris-HCl (pH 7.5), 5M NaCl, 0.25% sodium deoxycholate, 10% NP-40 and 10 mM sodium fluoride) supplemented with ethylenediaminetetraacetic acid (EDTA)-free protease inhibitor (Roche™) and 2 mM sodium orthovanadate (Sigma-Aldrich™). Protein levels were quantified by bicinchoninic acid (BCA) assay. Protein lysate was separated by 10% SDS-PAGE and Western analysis was performed using primary antibodies listed in the tables below followed with horseradish peroxidase (HRP, 1:10,000, Jackson ImmunoResearch™) conjugated secondary antibodies.

[3] = system: NK-92 cells; assay: Multi-response analysis: cytokine production with degranulation in NK-92; format: cell-based, Human; details: 30 μM three days, tumor cell or PMA and ionomycin stimulation
Method: NK-92 cells pre-treated with L598 (30 μM) or vehicle control were stimulated with K-562 tumor target cells [effector: target (E:T) at 1:1] or PMA/lonomycin (1 μg/mL each) or no-stimulation control with K-562 complete media, respectively. Anti-CD107a or LAMP-1 antibody (1:100, PE/Cy7 conjugated, clone H4A3, from BioLegend®) was added to cells at the start of degranulation assay. Golgi stop (containing Monensin, 1 μM) and Golgi plug (containing Brefeldin A, 4 μg/mL) were added to cells one hour after degranulation assay started and were kept until the end of the 6-hour-degranulation assay. Intracellular staining of GrB (1:40, PE conjugated, clone QA18A28, from BioLegend®) and PRF (1:40, FITC conjugated, clone B-D48, from BioLegend®) were performed with the Fixation/Permeabilization Solution Kit (BD® Biosciences) according to the manufacture's protocol. Cells were stained with fixable viability dye (1:2000) for 20 mins on ice and in dark, and blocked with FcBlock (1:20, diluted in 1× Perm/Wash buffer, Human truStain FcX from BioLegend®) for 5 mins at room temperature and in dark before intracellular staining. Cell gating and percentage of population quantification was based on no-stimulation control. […] Intracellular cytolytic granule contents GrA, GrB and PRF were measured as mentioned previously.

[4] = system: NK-92 cells; assay: Degranulation assay of NK-92 (CD107a, perforin, granzyme B); format: cell-based, Human
Method: (§2) NK-92 cells pre-treated with L598 (30 μM) or vehicle control were stimulated with K-562 tumor target cells [effector: target (E:T) at 1:1] or PMA/lonomycin (1 μg/mL each) or no-stimulation control with K-562 complete media, respectively. Anti-CD107a or LAMP-1 antibody (1:100, PE/Cy7 conjugated, clone H4A3, from BioLegend®) was added to cells at the start of degranulation assay. Golgi stop (containing Monensin, 1 μM) and Golgi plug (containing Brefeldin A, 4 μg/mL) were added to cells one hour after degranulation assay started and were kept until the end of the 6-hour-degranulation assay. Intracellular staining of GrB (1:40, PE conjugated, clone QA18A28, from BioLegend®) and PRF (1:40, FITC conjugated, clone B-D48, from BioLegend®) were performed with the Fixation/Permeabilization Solution Kit (BD® Biosciences) according to the manufacture's protocol. Cells were stained with fixable viability dye (1:2000) for 20 mins on ice and in dark, and blocked with FcBlock (1:20, diluted in 1× Perm/Wash buffer, Human truStain FcX from BioLegend®) for 5 mins at room temperature and in dark before intracellular staining. Cell gating and percentage of population quantification was based on no-stimulation control. For kinetics of degranulation assay, measurements were taken over three hours at 15 mins, 30 mins, 60 mins, 120 mins and 180 mins, with L598 (30 μM, three days) treated group and vehicle control group under the condition of tumor target cell K-562 stimulation (E: T at 1:1) or no stimulation. Intracellular cytolytic granule contents GrA, GrB and PRF were measured as mentioned previously.

[5] = system: NK-92 cells; assay: Surface receptor expression on NK-92 (flow cytometry); format: cell-based, Human
[6] = system: PTPN1 and PTPN2 catalytic domain; details: Montalibet J, et al., J Biol Chem 2006; cited from earlier work
[7] = system: NK-92 cells; assay: Lytic granule protein expression in NK-92 (flow cytometry, Western blot); format: cell-based, Human
Method: as §1, §2

[8] = system: NK-92 cells; assay: NK-92 viability and proliferation under inhibitor treatment; format: cell-based, Human; details: various IL-2 concentration, vs vehicle control
[9] = PMA/ionomycin 1 μg/mL each, six hours, vs control
[10] = three-hours cytolytic assay, K-562 stimulation

Q: Which “CD69 and activating receptor expression on cord blood NK cells” value [1] does the source give for “7-bromo-6-phosphono(difluoro-methyl)-3-napthalenonitrile [L598]” here?
A: upregulation

Q: And the “TGF-β1 activated phosphorylation of SMAD2” value [2]?
A: did not change significantly

Q: What about the “expression of SOCS1 and SOCS3” value [2] of the same substance?
A: did not change

Q: What about the “percentages of CD107a+, IFN-γ+ and CD107a+, TNF-α+ cells” value [3] of the same substance?
A: larger percentages

Q: What about the “percentage of degranulating NK-92 cells (surface CD107a and intracellular lytic granules)” value ([4]; 30 μM pre-treatment, K-562 stimulation six hours, vs control) of the same substance?
A: smaller percentage

Q: And the “dead tumor target K-562 cells in degranulation assay” value ([4]; K-562 stimulation E:T 1:1, vs control cells)?
A: more tumor target K-562 cells were found dead

Q: And the “degranulated NK-92 cells (CD107a+, Perforin− or Granzyme B−) under PMA and ionomycin” value [4, 9]?
A: less

Q: What about the “degranulating NK-92 cells under PMA and ionomycin” value [4, 9] of the same substance?
A: more

Q: What about the “percentage of CD107a−, Perforin+ or CD107a−, Granzyme B+ population” value ([4]; after six-hours K-562 stimulation, vs control) of the same substance?
A: larger percentage

Q: What about the “time from which granzyme B is degranulated more rapidly” value [4, 10] of the same substance?
A: 60 min

Q: And the “time from which perforin is degranulated more rapidly” value [4, 10]?
A: 30 min

Q: And the “IL-2Rα (CD25) expression” value ([5]; steady state, 10 μM)?
A: upregulated

Q: And the “IL-2Rβ (CD122) expression” value ([5]; steady state, 10 μM)?
A: remained stable

Q: What about the “CD69 and activating receptors NKp30, NKp46, NKG2D on NK-92” value ([5]; with or without K-562 stimulation) of the same substance?
A: upregulation

Q: What about the “binding specificity for PTPN1 and PTPN2 over other protein tyrosine phosphatases” value [6] of the same substance?
A: binds specifically to their catalytic domain but no other protein tyrosine phosphatases

Q: And the “thresholds of maximal expression of perforin and granzyme B” value ([7]; IL-2 titration, 30 μM)?
A: upregulated

Q: And the “fold increase of perforin and granzyme B MFI over vehicle control” value ([7]; day three, IL-2 1250 IU/mL, 30 μM)?
A: approximately two-fold

Q: And the “protein expression of perforin and granzyme B” value ([7]; gradual increasing concentration, three days)?
A: upregulated in a dosage dependent manner

Q: What about the “maximal expression of lytic granules after withdrawal, vs control” value ([7]; inhibitor withdrawn three consecutive days) of the same substance?
A: similar

Q: What about the “fold change of perforin and granzyme B after withdrawal” value ([7]; inhibitor withdrawn three consecutive days, IL-2 titration) of the same substance?
A: around one-fold

Q: What about the “fold change of intracellular perforin and granzyme over control” value ([7]; one-day treatment, IL-2 titration, 30 μM) of the same substance?
A: started improving

Q: What about the “granzyme A protein expression” value ([7]; with or without inhibitor treatment) of the same substance?
A: relatively stable

Q: And the “granzyme B expression, treatment vs control group, without IL-2” value ([7]; without IL-2 stimulation)?
A: almost no difference

Q: What about the NK-92 proliferation [8] of the same substance?
A: proliferate slightly faster
